Source: patent US8114594B2, “Crude biological derivatives competent for nucleic acid detection” (Applied Biosysyems, LLC, priority 2004, dated 2012)

System: tissue plasminogen activator (t-PA)
Test: Monitoring drug treatment: t-PA mRNA by one step real-time RT-PCR from HeLa cell lysate
Assay type: cell-based, human
Details: lysate 40 cells/μl, PMA 1 nM, 24 hours
Procedure: HeLa cells were seeded DME media with 10% FBS in each of three wells in a 12-well tissue culture plate (Nalge Nunc International, Cat. #150628) at 125,000 cells/well. After an overnight incubation, phorbol myristate acetate (PMA) was added to final concentrations of 10, 1 and 0 nM in the growth medium. The cells were incubated at 37° C. for 24 hours. The medium was removed and the cells washed with PBS. The cells were incubated with 0.05% trypsin in 0.53 mM EDTA for 10 minutes at 37° C. to detach the cells. Cells were counted and concentration was determined. Cells were centrifuged at 800×g for 5 minutes. The medium was removed and the cells were washed once with PBS. Each cell pellet was suspended in PBS to obtain a stock solution of 10000 cells/μl. A five-fold serial dilution of the stock solution with PBS was carried out to give 10000, 2000 and 400 cells/0.10 μl of each dilution was added to 90 μl of Buffer at room temperature such that the final cell concentrations in the lysate were 1000, 200 and 40 cells/μl. The samples were gently shaken at room temperature (˜21° C.) for 1 to 2 min. As in EXAMPLE 1, cell lysate of 30% of the final reaction volume was added to a one step real-time RT-PCR reaction with primers and TaqMan probe for tissue plasminogen activator (t-PA) and 18S rRNA (EXAMPLE 8). The t-PA primer and probe sequences were as follows: Forward primer, 5′-[…]-3′ (SEQ ID NO. 34); Reverse primer, 5′-[…]-3′ (SEQ ID NO. 35); TaqMan Probe: 5′-(FAM)-[…]-(TAMRA)-3′ (SEQ ID NO. 36).

With `CCCCCCCCCCCCCC(=O)O[C@@H]1[C@@H](C)[C@@]2(O)[C@@H](C=C(CO)C[C@]3(O)C(=O)C(C)=C[C@@H]23)[C@@H]2C(C)(C)[C@]12OC(C)=O` [PMA, phorbol myristate acetate] the “t-PA (fold increase compared to 0 nM PMA)” value was 16 fold.

Same assay, conditions: lysate 40 cells/μl, PMA 10 nM, 24 hours

For `CCCCCCCCCCCCCC(=O)O[C@@H]1[C@@H](C)[C@@]2(O)[C@@H](C=C(CO)C[C@]3(O)C(=O)C(C)=C[C@@H]23)[C@@H]2C(C)(C)[C@]12OC(C)=O` [PMA, phorbol myristate acetate], the “t-PA (fold increase compared to 0 nM PMA)” value was 147 fold.

Same assay, conditions: lysate 200 cells/μl, PMA 1 nM, 24 hours

For `CCCCCCCCCCCCCC(=O)O[C@@H]1[C@@H](C)[C@@]2(O)[C@@H](C=C(CO)C[C@]3(O)C(=O)C(C)=C[C@@H]23)[C@@H]2C(C)(C)[C@]12OC(C)=O` [PMA, phorbol myristate acetate], the “t-PA (fold increase compared to 0 nM PMA)” value was 9 fold.

Same assay, conditions: lysate 200 cells/μl, PMA 10 nM, 24 hours

With `CCCCCCCCCCCCCC(=O)O[C@@H]1[C@@H](C)[C@@]2(O)[C@@H](C=C(CO)C[C@]3(O)C(=O)C(C)=C[C@@H]23)[C@@H]2C(C)(C)[C@]12OC(C)=O` [PMA, phorbol myristate acetate] the “t-PA (fold increase compared to 0 nM PMA)” value was 62 fold.

Same assay, conditions: lysate 1000 cells/μl, PMA 1 nM, 24 hours

For `CCCCCCCCCCCCCC(=O)O[C@@H]1[C@@H](C)[C@@]2(O)[C@@H](C=C(CO)C[C@]3(O)C(=O)C(C)=C[C@@H]23)[C@@H]2C(C)(C)[C@]12OC(C)=O` [PMA, phorbol myristate acetate], the “t-PA (fold increase compared to 0 nM PMA)” value was 8 fold.

Same assay, conditions: lysate 1000 cells/μl, PMA 10 nM, 24 hours

For `CCCCCCCCCCCCCC(=O)O[C@@H]1[C@@H](C)[C@@]2(O)[C@@H](C=C(CO)C[C@]3(O)C(=O)C(C)=C[C@@H]23)[C@@H]2C(C)(C)[C@]12OC(C)=O` [PMA, phorbol myristate acetate], the “t-PA (fold increase compared to 0 nM PMA)” value was 39 fold.

System: not given
Test: not given
Details: cited from earlier work

In order of falling pKa:
1. CCC(CC)C(=O)O [2-ethylbutyric acid]  4.8
2. CC(=O)NCCC(=O)O [β-acetylaminopropionic acid]  4.4
3. CC(C)(C)c1cccc(C(=O)O)c1 [3-tert-butylbenzoic acid]  4.2
4. C[C@H](NC(N)=O)C(=O)O [N-carbamoylalanine]  3.9
5. O=C(O)c1cccc(Br)c1 [3-bromobenzoic acid]  3.8
6. CC(=O)NCC(=O)O [N-acetylglycine]  3.7
7. CCC(=O)NCC(=O)O [N-propionylglycine]  3.7
8. Nc1cccc(S(=O)(=O)O)c1 [3-aminobenzenesulfonic acid]  3.7
9. CC(=O)N[C@@H](C)C(=O)O [N-acetylalanine]  3.7
10. Cc1cc(C)c(C)c(C(=O)O)c1C [2,3,5,6-tetramethylbenzoic acid]  3.5
11. O=C(O)c1ccc([N+](=O)[O-])cc1 [4-nitrobenzoic acid]  3.4
12. Cc1cc(C)c(C(=O)O)c(C)c1 [2,4,6-trimethylbenzoic acid]  3.4
13. O=C(O)c1c(O)ccc2ccccc12 [2-hydroxy-1-naphthoic acid]  3.3
14. O=C(O)c1ccco1 [2-furancarboxylic acid]  3.2
15. Nc1ccc(S(=O)(=O)O)cc1 [4-aminobenzenesulfonic acid]  3.2
16. N#CCC(=O)O [cyanoacetic acid]  2.5
17. Nc1ccccc1S(=O)(=O)O [2-aminobenzenesulfonic acid]  2.5
18. CC(C)(N)C(=O)O [2-amino-2-methylpropionic acid]  2.4
19. CC(C)C(C(=O)O)C(=O)O [isopropylmalonic acid]  2.4
20. CC(C)(C#N)C(=O)O [2-cyano-2-methylpropionic acid]  2.4
21. CC[C@H](C)[C@H](N)C(=O)O [isoleucine]  2.3
22. CCC(C)C(N)C(=O)O (stereo not drawn) [2-amino-3-methylpentanoic acid]  2.3
23. CCCC(N)C(=O)O (stereo not drawn) [2-aminopentanoic acid]  2.3
24. O=C(O)C#CCl [chloropropynoic acid]  1.85
